Results taken from US20210214375A1 (LUNDBECK LA JOLLA RESEARCH CENTER, INC., priority 2017, published 2021).
Where two headings read alike, the source gives them in different places.

Target: T1, MAGL (Homo sapiens, UniProt Q99685)
T1 construct: Proteomes (human prefrontal cortex or cell membrane fractions); from tissue
T1 sequence (Q99685 1-303): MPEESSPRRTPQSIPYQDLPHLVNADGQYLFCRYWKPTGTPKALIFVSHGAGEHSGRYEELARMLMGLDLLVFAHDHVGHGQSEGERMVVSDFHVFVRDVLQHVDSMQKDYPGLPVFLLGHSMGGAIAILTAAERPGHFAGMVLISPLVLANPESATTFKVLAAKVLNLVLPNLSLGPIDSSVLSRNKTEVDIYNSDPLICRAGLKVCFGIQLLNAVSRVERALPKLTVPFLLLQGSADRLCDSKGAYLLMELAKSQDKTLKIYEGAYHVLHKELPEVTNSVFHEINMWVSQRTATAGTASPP
Assay: In vitro competitive activity-based protein profiling (gel-based, FP-Rh or HT-01 probe)
Assay type: biochemical
Description: Compounds are tested to assess their MAGL and serine hydrolase activity using the following in vitro and in vivo assays.
Proteomes (human prefrontal cortex or cell membrane fractions) (50 μL, 1.0 mg/mL total protein concentration) were preincubated with varying concentrations of inhibitors at 37° C. After 30 min, FP—Rh or HT-01 (1.0 μL, 50 μM in DMSO) was added and the mixture was incubated for another 30 min at room temperature. Reactions were quenched with SDS loading buffer (15 μL-4×) and run on SDS-PAGE.

[1] = PC3 proteome, read-out: IC50 MGLL PC3 (Human)
[2] = PFC (prefrontal cortex) proteome
[3] = PFC (prefrontal cortex) proteome, read-out: IC50 MGLL PFC (Human)

Row | Structure (SMILES) | IC50 [1] | % Inh MGLL PFC (Human, μM) [2] | IC50 [3]
1 | O=C(O)[C@@H]1CCCN(c2cc(C(F)(F)F)ccc2CN2CC3(CCN(C(=O)OC(C(F)(F)F)C(F)(F)F)CC3)C2)C1 [Example 107, (R)-1-(2-((7-(((1,1,1,3,3,3-Hexafluoropropan-2-yl)oxy)carbonyl)-2,7-diazaspiro[3.5]nonan-2-yl)methyl)-5-(trifluoromethyl)phenyl)piperidine-3-carboxylic acid] | < 100 nM | – | –
2 | CC1(C(=O)O)CN(c2cc(CN3CC4(CCN(C(=O)OC(C(F)(F)F)C(F)(F)F)CC4)C3)cc(C(F)(F)F)c2)CCO1 (stereo not drawn) [Example 22, 4-(3-((7-(((1,1,1,3,3,3-Hexafluoropropan-2-yl)oxy)carbonyl)-2,7-diazaspiro[3.5]nonan-2-yl)methyl)-5-(trifluoromethyl)phenyl)-2-methylmorpholine-2-carboxylic acid] | < 100 nM | – | –
3 | CC1(C(=O)O)CCN(c2cc(CN3CC4(CCN(C(=O)OC(C(F)(F)F)C(F)(F)F)CC4)C3)cc(C(F)(F)F)c2)C1 (stereo not drawn) [Example 121, 1-(3-((7-(((1,1,1,3,3,3-Hexafluoropropan-2-yl)oxy)carbonyl)-2,7-diazaspiro[3.5]nonan-2-yl)methyl)-5-(trifluoromethyl)phenyl)-3-methylpyrrolidine-3-carboxylic acid] | < 100 nM | – | –
4 | O=C(O)C1CCN(Cc2cc(Cl)cc(C(=O)N3CCCC34CCN(C(=O)OC(C(F)(F)F)C(F)(F)F)CC4)c2)CC1 [Example 11, 1-(3-Chloro-5-(8-(((1,1,1,3,3,3-hexafluoropropan-2-yl)oxy)carbonyl)-1,8-diazaspiro[4.5]decane-1-carbonyl)benzyl)piperidine-4-carboxylic acid] | < 100 nM | ### (### is ≥ 75%) | –
5 | N#Cc1ccc(C(=O)N2CCC3(CCN(C(=O)OC(C(F)(F)F)C(F)(F)F)CC3)C2)cc1C(F)(F)F [Example 12, 1,1,1,3,3,3-Hexafluoropropan-2-yl 2-(4-cyano-3-(trifluoromethyl)benzoyl)-2,8-diazaspiro[4.5]decane-8-carboxylate] | < 100 nM | – | –
6 | O=C(OC(C(F)(F)F)C(F)(F)F)N1CCC2(CC1)CCN(C(=O)c1ccc(C(F)(F)F)c(Cl)c1)C2 [Example 109, 1,1,1,3,3,3-Hexafluoropropan-2-yl 2-(3-chloro-4-(trifluoromethyl)benzoyl)-2,8-diazaspiro[4.5]decane-8-carboxylate] | < 100 nM | – | –
7 | O=C(OC(C(F)(F)F)C(F)(F)F)N1CCC2(CC1)CCN(C(=O)c1ccc(C(F)(F)F)cc1Cl)C2 [Example 119, 1,1,1,3,3,3-Hexafluoropropan-2-yl 2-(2-chloro-4-(trifluoromethyl)benzoyl)-2,8-diazaspiro[4.5]decane-8-carboxylate] | < 100 nM | – | –
8 | O=C(O)C1CCN(c2cc(F)ccc2CN2CC3(CCN(C(=O)OC(C(F)(F)F)C(F)(F)F)CC3)C2)CC1 [Example 123, 1-(5-Fluoro-2-((7-(((1,1,1,3,3,3-hexafluoropropan-2-yl)oxy)carbonyl)-2,7-diazaspiro[3.5]nonan-2-yl)methyl)phenyl) piperidine-4-carboxylic acid] | 100 to 1000 nM | – | –
9 | O=C(O)C1CCN(c2cc(S(F)(F)(F)(F)F)ccc2CN2CCC3(CC2)CCN(C(=O)OC(C(F)(F)F)C(F)(F)F)C3)CC1 [Example 222, 1-(2-((2-(((1,1,1,3,3,3-Hexafluoropropan-2-yl)oxy)carbonyl)-2,8-diazaspiro[4.5]decan-8-yl)methyl)-5-(pentafluoro-l6-sulfaneyl)phenyl) piperidine-4-carboxylic acid] | 100 to 1000 nM | – | –
10 | O=C(O)C1CCN(c2cc(Cl)ccc2CN2CC3(CCN(C(=O)OC(C(F)(F)F)C(F)(F)F)CC3)C2)CC1 [Example 122, 1-(5-Chloro-2-((7-(((1,1,1,3,3,3-hexafluoropropan-2-yl)oxy)carbonyl)-2,7-diazaspiro[3.5]nonan-2-yl)methyl)phenyl) piperidine-4-carboxylic acid] | < 100 nM | – | –
11 | O=C(O)C1CN(c2cc(CN3CC4(CCN(C(=O)OC(C(F)(F)F)C(F)(F)F)CC4)C3)cc(C(F)(F)F)c2)CCO1 (stereo not drawn) [Example 100, 4-(3-((7-(((1,1,1,3,3,3-Hexafluoropropan-2-yl)oxy)carbonyl)-2,7-diazaspiro[3.5]nonan-2-yl)methyl)-5-(trifluoromethyl)phenyl)morpholine-2-carboxylic acid] | < 100 nM | – | –
12 | CN(Cc1cccc(F)c1C1(C(=O)O)CCCC1)C1(C)CCN(C(=O)OC(C(F)(F)F)C(F)(F)F)CC1 [Example 144, 1-(2-Fluoro-6-{[(1-{[(1,1,1,3,3,3-hexafluoropropan-2-yl)oxy]carbonyl}-4-methylpiperidin-4-yl)(methyl)amino]methyl}phenyl) cyclopentane-1-carboxylic acid] | < 100 nM | ### (### is ≥ 75%) | –
13 | O=C(O)CN1CCN(c2cc(CN3CCCC34CCN(C(=O)OC(C(F)(F)F)C(F)(F)F)CC4)cc(C(F)(F)F)c2)CC1 [Example 2, 2-(4-(3-((8-(((1,1,1,3,3,3-Hexafluoropropan-2-yl)oxy)carbonyl)-1,8-diazaspiro[4.5]decan-1-yl)methyl)-5-(trifluoromethyl)phenyl)piperazin-1-yl)acetic acid] | < 100 nM | ### (### is ≥ 75%) | < 100 nM
14 | CN(Cc1ccc(C(F)(F)F)cc1N1CCN(CC(=O)O)CC1)C1(C)CCN(C(=O)OC(C(F)(F)F)C(F)(F)F)CC1 [Example 26, 2-(4-(2-(((1-(((1,1,1,3,3,3-Hexafluoropropan-2-yl)oxy)carbonyl)-4-methylpiperidin-4-yl)(methyl)amino)methyl)-5-(trifluoromethyl)phenyl)piperazin-1-yl)acetic acid] | < 100 nM | ### (### is ≥ 75%) | < 100 nM
15 | O=C(O)C1CCN(c2cc(CN3CCC4(CC3)CCN(C(=O)OC(C(F)(F)F)C(F)(F)F)C4)ccc2C(F)(F)F)CC1 [Example 221] | < 100 nM | – | –
16 | CC1(C(=O)O)CCN(c2cc(C(F)(F)F)ccc2CN2CC3(CCN(C(=O)OC(C(F)(F)F)C(F)(F)F)CC3)C2)C1 (stereo not drawn) [Example 115, 1-(2-((7-(((1,1,1,3,3,3-Hexafluoropropan-2-yl)oxy)carbonyl)-2,7-diazaspiro[3.5]nonan-2-yl)methyl)-5-(trifluoromethyl)phenyl)-3-methylpyrrolidine-3-carboxylic acid] | < 100 nM | – | –
17 | CC1(OCc2ccc(Cl)cc2C2(C(=O)O)CCCC2)CCN(C(=O)OC(C(F)(F)F)C(F)(F)F)CC1 [Example 146, 1-(5-Chloro-2-{[(1-{[(1,1,1,3,3,3-hexafluoropropan-2-yl)oxy]carbonyl}-4-methylpiperidin-4-yl)oxy]methyl}phenyl) cyclopentane-1-carboxylic acid] | < 100 nM | ### (### is ≥ 75%) | –
18 | O=C(O)C1CCN(c2cc(C(F)(F)F)ccc2CN2CC3(CCN(C(=O)OC(C(F)(F)F)C(F)(F)F)CC3)C2)CC1 [Example 102, 1-(2-((7-(((1,1,1,3,3,3-Hexafluoropropan-2-yl)oxy)carbonyl)-2,7-diazaspiro[3.5]nonan-2-yl)methyl)-5-(trifluoromethyl)phenyl)piperidine-4-carboxylic acid] | < 100 nM | – | –
19 | O=C(O)c1cc(CN2CC3(CCN(C(=O)OC(C(F)(F)F)C(F)(F)F)CC3)C2)ccc1C(F)(F)F [Example 21, 5-((7-(((1,1,1,3,3,3-Hexafluoropropan-2-yl)oxy)carbonyl)-2,7-diazaspiro[3.5]nonan-2-yl)methyl)-2-(trifluoromethyl)benzoic acid] | < 100 nM | – | –
20 | CN(Cc1ccc(Cl)cc1N1CCC(C(=O)O)CC1)C1(C)CCN(C(=O)OC(C(F)(F)F)C(F)(F)F)CC1 [Example 135, 1-(5-Chloro-2-(((1-(((1,1,1,3,3,3-hexafluoropropan-2-yl)oxy)carbonyl)-4-methylpiperidin-4-yl)(methyl)amino)methyl)phenyl) piperidine-4-carboxylic acid] | – | ### (### is ≥ 75%) | –
21 | O=C(O)[C@H]1CCCN(c2cc(C(F)(F)F)ccc2CN2CC3(CCN(C(=O)OC(C(F)(F)F)C(F)(F)F)CC3)C2)C1 [Example 111, (S)-1-(2-((7-(((1,1,1,3,3,3-hexafluoropropan-2-yl)oxy)carbonyl)-2,7-diazaspiro[3.5]nonan-2-yl)methyl)-5-(trifluoromethyl)phenyl)piperidine-3-carboxylic acid] | < 100 nM | – | –
22 | CN(Cc1cc(C(F)(F)F)cc(C2(C(=O)O)CCCC2)c1)C1(C)CCN(C(=O)OC(C(F)(F)F)C(F)(F)F)CC1 [Example 138, 1-(3-{[(1-{[(1,1,1,3,3,3-Hexafluoropropan-2-yl)oxy]carbonyl}-4-methylpiperidin-4-yl)(methyl)amino]methyl}-5-(trifluoromethyl)phenyl)cyclopentane-1-carboxylic acid] | – | ### (### is ≥ 75%) | < 100 nM
23 | CN(Cc1ccc(C(F)(F)F)cc1N1CC2CC1CN2CC(=O)O)C1(C)CCN(C(=O)OC(C(F)(F)F)C(F)(F)F)CC1 (stereo not drawn) [Example 27, 2-(5-(2-(((1-(((1,1,1,3,3,3-Hexafluoropropan-2-yl)oxy)carbonyl)-4-methylpiperidin-4-yl)(methyl)amino)methyl)-5-(trifluoromethyl)phenyl)-2,5-diazabicyclo[2.2.1]heptan-2-yl)acetic acid] | < 100 nM | – | < 100 nM
24 | CC1(OCc2cc(N3CCC(C(=O)O)CC3)cc(C(F)(F)F)c2)CCN(C(=O)OC(C(F)(F)F)C(F)(F)F)CC1 [Example 227] | < 100 nM | – | –
